Source: US7083798B1, “Method of immunomodulatory treatment of insulin dependent diabetes mellitus using mycobacterial cell wall compositions” (Centenary Institute of Cancer Medicine and Cell Biology, priority 1996, dated 2006)

Test system: mice
Assay: Maximum dose tolerated by mice
Protocol: GMDP (10, 5.0, 2.5 and 1.0 μg), ManLAM (50, 25, 12.5 and 6.25 μg), and MAPG (1.0, 0.5, 0.25 and 0.125 mg) were each suspended in saline and injected intravenously into eight week old female NOD mice. […] Groups of 5 mice were tested and the incidence of diabetes compared to 17 saline treated and 14 BCG treated control mice.

CC(=O)N[C@H]1[C@H](O[C@H]2[C@H](O[C@H](C)C(=O)N[C@@H](C)C(=O)N[C@H](CCC(=O)O)C(N)=O)[C@@H](NC(C)=O)C(O)O[C@@H]2CO)O[C@H](CO)[C@@H](O)[C@@H]1O (stereo partly drawn) [GMDP, N-acetylglucosaminyl-N-acetylmuramyl-L-alanyl-D-isoglutamine]
maximum dose tolerated by mice: 10 µL·g
